Data as given in US8906852B2 (MethylGene Inc., priority 2010, dated 2014).
pIC50: −log10 of the molar value.

biological target: T1, VEGFR/KDR (Homo sapiens, UniProt P35968); assay: VEGFR/KDR kinase inhibition, DELFIA assay; assay type: biochemical; settings: ATP 0.6 uM (2x Km), enzyme 5 nM
T1 construct: made in house; host or cells: Sf9 cells (Spodoptera frugiperda), baculovirus
In short: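 DELFIA time-resolved fluorescence readout using Europium-tagged anti-phosphotyrosine antibody after EDTA stop. Kinase reaction on plate-bound poly(Glu4,Tyr) ran 10-30 min at 30° C with 5 nM enzyme and 0.6 uM ATP (2× Km), following 4 min on-ice pre-incubation with compound; IC50 over a concentration range.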

T1 sequence (P35968 806-1356): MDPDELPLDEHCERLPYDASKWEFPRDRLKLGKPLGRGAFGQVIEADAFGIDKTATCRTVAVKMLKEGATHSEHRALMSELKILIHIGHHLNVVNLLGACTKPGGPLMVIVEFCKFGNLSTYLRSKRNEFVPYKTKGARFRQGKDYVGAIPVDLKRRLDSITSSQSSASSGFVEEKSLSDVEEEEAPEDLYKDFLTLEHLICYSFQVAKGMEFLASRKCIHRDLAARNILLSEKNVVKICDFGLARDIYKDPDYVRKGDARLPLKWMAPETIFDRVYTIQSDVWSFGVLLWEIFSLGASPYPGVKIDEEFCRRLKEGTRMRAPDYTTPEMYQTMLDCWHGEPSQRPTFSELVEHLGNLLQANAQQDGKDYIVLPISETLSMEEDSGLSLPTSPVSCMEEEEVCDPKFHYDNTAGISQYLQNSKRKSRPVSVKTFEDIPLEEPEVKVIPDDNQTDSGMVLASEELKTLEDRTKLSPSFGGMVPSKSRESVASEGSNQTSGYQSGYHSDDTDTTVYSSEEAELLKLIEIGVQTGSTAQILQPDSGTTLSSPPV

pIC50, > 7.30:
O=C(Nc1ccc(Oc2ccnc3cc(-c4ccc(CN5CCN(Cc6cccnc6)CC5)cn4)sc23)c(F)c1)NC1CC1 [Compound 324, 1-cyclopropyl-3-(3-fluoro-4-(2-(5-((4-(pyridin-3-ylmethyl)piperazin-1-yl)methyl)pyridin-2-yl)thieno[3,2-b]pyridin-7-yloxy)phenyl)urea]
O=C(Nc1ccc(Oc2ccnc3cc(-c4ccc(CN5CCN(Cc6ccncc6)CC5)cn4)sc23)c(F)c1)NC1CC1 [Compound 325, 1-cyclopropyl-3-(3-fluoro-4-(2-(5-((4-(pyridin-4-ylmethyl)piperazin-1-yl)methyl)pyridin-2-yl)thieno[3,2-b]pyridin-7-yloxy)phenyl)urea]
O=C(Nc1ccc(Oc2ccnc3cc(-c4ccc(CN5CCN(Cc6ccccn6)CC5)cn4)sc23)c(F)c1)NC1CC1 [Compound 326, 1-cyclopropyl-3-(3-fluoro-4-(2-(5-((4-(pyridin-2-ylmethyl)piperazin-1-yl)methyl)pyridin-2-yl)thieno[3,2-b]pyridin-7-yloxy)phenyl)urea]
O=C(Nc1ccc(Oc2ccnc3cc(-c4ccc(CN5CCN(CCOCCO)CC5)cn4)sc23)c(F)c1)NC1CC1 [Compound 327]
COC(=O)COC1CCN(Cc2ccc(-c3cc4nccc(Oc5ccc(NC(=O)NC6CC6)cc5F)c4s3)nc2)CC1 [Compound 328, methyl 2-(1-((6-(7-(4-(3-cyclopropylureido)-2-fluorophenoxy)thieno [3,2-b]pyridin-2-yl)pyridin-3-yl)methyl)piperidin-4-yloxy)acetate]
O=C(O)COC1CCN(Cc2ccc(-c3cc4nccc(Oc5ccc(NC(=O)NC6CC6)cc5F)c4s3)nc2)CC1 [Compound 329, 2-(1-((6-(7-(4-(3-cyclopropylureido)-2-fluorophenoxy)thieno[3,2-b]pyridin-2-yl)pyridin-3-yl)mcthyI)piperidin-4-yloxy)acetic acid]
O=C(O)CCC1CCN(Cc2ccc(-c3cc4nccc(Oc5ccc(NC(=O)NC6CC6)cc5F)c4s3)nc2)CC1 [Compound 330, 3-(1-((6-(7-(4-(3-cyclopropylureido)-2-fluorophenoxy)thieno[3,2-b]pyridin-2-yl)pyridin-3-yl)methyl)piperidin-4-yl)propanoic acid]
O=C(Nc1ccc(Oc2ccnc3cc(-c4ccc(CNc5ccc(OCCN6CCOCC6)cc5)cn4)sc23)c(F)c1)NC1CC1 [Compound 331, 1-Cyclopropyl-3-(3-fluoro-4-(2-(5-((4-(2-morpholinoethoxy)phenylamino)methyl)pyridin-2-yl)thieno[3,2-b]pyridin-7-yloxy)phenyl)urea]
O=C(Nc1ccc(Oc2ccnc3cc(-c4ccc(CNc5cc[nH]n5)cn4)sc23)c(F)c1)NC1CC1 [Compound 332, 1-(4-(2-(5-((1H-Pyrazol-3-ylamino)methyl)pyridin-2-yl)thieno[3,2-b]pyridin-7-yloxy)-3-fluorophenyl)-3-cyclopropylurea]
Cc1cc(NCc2ccc(-c3cc4nccc(Oc5ccc(NC(=O)NC6CC6)cc5F)c4s3)nc2)n[nH]1 [Compound 333, 1-Cyclopropyl-3-(3-fluoro-4-(2-(5-((5-methyl-1H-pyrazol-3-ylamino)methyl)pyridin-2-yl)thieno[3,2-b]pyridin-7-yloxy)phenyl)urea]
Cn1ccc(NCc2ccc(-c3cc4nccc(Oc5ccc(NC(=O)NC6CC6)cc5F)c4s3)nc2)n1 [Compound 334, 1-Cyclopropyl-3-(3-fluoro-4-(2-(5-((1-methyl-1H-pyrazol-3-ylamino)methyl)pyridin-2-yl)thieno[3,2-b]pyridin-7-yloxy)phenyl)urea]
Cc1cc(NCc2ccc(-c3cc4nccc(Oc5ccc(NC(=O)NC6CC6)cc5F)c4s3)nc2)nn1C [Compound 335, 1-cyclopropyl-3-(4-(2-(5-((1,5-dimethyl-1H-pyrazol-3-ylamino)methyl)pyridin-2-yl)thieno[3,2-b]pyridin-7-yloxy)-3-fluorophenyl)urea]
